Reference: article PMC9518248, “Inhibition of Toxoplasma gondii by 1,2,4-triazole-based compounds: marked improvement in selectivity relative to the standard therapy pyrimethamine and sulfadiazine” (Journal of Enzyme Inhibition and Medicinal Chemistry, 2022)
Values after ≈ are worked out from the molar mass of the structure shown. Where two headings read alike, the source gives them in different places.

Assays:
[1] = system: mouse fibroblasts L929 cells; design: method as in PMID 31022878, PMID 30744161; conditions: thiosemicarbazides 1a–27a; cited from earlier work
T. gondii RH-GFP [2] = system: T. gondii RH-GFP; design: method as in PMID 31022878, PMID 30744161; conditions: thiosemicarbazides 1a–27a, cited from earlier work; for SI: CC30/IC50Tg; for IC50Tg: T. gondii infected Hs27 cells
[3] = system: mouse fibroblasts L929 cells; test: Cell viability assay (MTT, ISO 10993-5); format: cell-based; conditions: 24 h, highest dilution causing 30% or higher destruction of cells
Procedure: Culture medium RPMI 1640, without phenol red (Biowest, Nuaille, France) supplemented with 10% FBS, 2 mM […] penicillin, 100 μg/mL streptomycin were used. Briefly, 1 × 10^4/well of L929 cells were placed in 96-well plates and incubated for 24 h at 37 °C and 10% CO2. Afterwards, the old culture medium was replaced with 100 μL of the compound, drug or inhibitor, diluted in culture medium and the cells treated for 24 h. Additionally, cells were treated with 0.03-4.0% concentration of DMSO as the solvent (data not shown). Then, 50 μL of 1 mg/mL of MTT solution in RPMI 1640 without phenol red was added to each well and incubated for 2 h at 37 °C and 10% CO2. Next, cell culture medium was aspirated carefully and 150 μL of DMSO was added to each well, and the plates were gently mixed. Then, 25 μL 0.1 M glycine buffer (pH 10.5) (Sigma-Aldrich) was added. The optical density at 570 nm using a multi-mode microplate reader SpectraMax® i3 (Syngen, Taipei City, Taiwan) was recorded. The results were expressed as a percentage of viability compared to untreated cells. All experiments were performed in triplicate. The reported methyl thiazolyltetrazole (MTT) method was used to study in vitro cytotoxic profile of the s-triazoles 1b-27b to the host cells (L929). Experiments were performed in accordance with the international standard IS0-10993-5:2009. […] The data for acyclic precursors 1a-27a are also included for comparison[39]^,[40].

T. gondii RH-GFP [4] = test: Antiparasitic assay: T. gondii RH-GFP proliferation in Hs27 cells; format: cell-based, Toxoplasma gondii; conditions: for IC50: Toxoplasma gondii, read-out: IC50Tg; for SI: selectivity index, CC30 (L929)/IC50Tg
[5] = T. gondii RH-GFP in Hs27 cells, 96 h, values above highest tested concentration extrapolated

Structure (SMILES) | CC30 [1] | SI (T. gondii RH-GFP [2]) | IC50Tg (T. gondii RH-GFP [2]) | CC30 [3] | IC50 (T. gondii RH-GFP [4]; [5]) | SI (T. gondii RH-GFP [4]) | melting point | IC50 (T. gondii RH-GFP [4]; HS27, 96 h)
Cc1nc[nH]c1C(=O)NNC(=S)Nc1ccccc1F [1a] | 289.6 µg/mL (≈ 987 µM) | 4.21 | 68.83 µg/mL (≈ 235 µM) |  |  |  |  | 
Cc1nc[nH]c1-c1n[nH]c(=S)n1-c1ccccc1F [1b] |  |  |  | 1270.57 µg/mL (≈ 4620 µM) | 220 µg/mL (≈ 799 µM) | 5.78 |  | 
Cc1nc[nH]c1C(=O)NNC(=S)Nc1cccc(F)c1 [2a] | 125.17 µg/mL (≈ 427 µM) | 1.10 | 113.45 µg/mL (≈ 387 µM) |  |  |  |  | 
Cc1nc[nH]c1-c1n[nH]c(=S)n1-c1cccc(F)c1 [2b, 4–(3-fluorophenyl)-5–(4-methylimidazol-5-yl)-1,2,4-triazole-3-thione] |  |  |  |  | 103 µg/mL (≈ 374 µM) | 24.26 | 284 °C | 
Cc1nc[nH]c1C(=O)NNC(=S)Nc1ccc(F)cc1 [3a] | 266.01 µg/mL (≈ 907 µM) | 2.41 | 110.31 µg/mL (≈ 376 µM) |  |  |  |  | 
Cc1nc[nH]c1-c1n[nH]c(=S)n1-c1ccc(F)cc1 [3b] |  |  |  | 113.71 µg/mL (≈ 413 µM) | 206 µg/mL (≈ 748 µM) | 0.55 |  | 
Cc1nc[nH]c1C(=O)NNC(=S)Nc1ccccc1Cl [4a] | 143.15 µg/mL (≈ 462 µM) | 4.02 | 35.61 µg/mL (≈ 115 µM) |  |  |  |  | 
Cc1nc[nH]c1C(=O)NNC(=S)Nc1cccc(Cl)c1 [5a] | 96.78 µg/mL (≈ 312 µM) |  | 25.70 µg/mL (≈ 83 µM) |  |  |  |  | 
Cc1nc[nH]c1C(=O)NNC(=S)Nc1ccc(Cl)cc1 [6a] | 94.12 µg/mL (≈ 304 µM) | 1.28 | 73.37 µg/mL (≈ 237 µM) |  |  |  |  | 
Cc1nc[nH]c1C(=O)NNC(=S)Nc1ccccc1Br [7a] | 205.31 µg/mL (≈ 580 µM) | 7.43 | 27.65 µg/mL (≈ 78.1 µM) |  |  |  |  | 
Cc1nc[nH]c1C(=O)NNC(=S)Nc1cccc(Br)c1 [8a] | 96.12 µg/mL (≈ 271 µM) | 6.15 | 15.64 µg/mL (≈ 44.2 µM) |  |  |  |  | 
Cc1nc[nH]c1C(=O)NNC(=S)Nc1ccc(Br)cc1 [9a] | 48.89 µg/mL (≈ 138 µM) | 3.36 | 14.57 µg/mL (≈ 41.1 µM) |  |  |  |  | 
Cc1nc[nH]c1C(=O)NNC(=S)Nc1ccccc1I [10a] | 101.58 µg/mL (≈ 253 µM) | 5.00 | 20.31 µg/mL (≈ 50.6 µM) |  |  |  |  | 
Cc1nc[nH]c1C(=O)NNC(=S)Nc1cccc(I)c1 [11a] | 85.57 µg/mL (≈ 213 µM) | 8.31 | 10.3 µg/mL (≈ 25.7 µM) |  |  |  |  | 
Cc1nc[nH]c1C(=O)NNC(=S)Nc1ccc(I)cc1 [12a] | 71.58 µg/mL (≈ 178 µM) | 3.25 | 22.01 µg/mL (≈ 54.9 µM) |  |  |  |  | 
Cc1nc[nH]c1C(=O)NNC(=S)Nc1cc(F)ccc1F [13a] | 158.49 µg/mL (≈ 509 µM) | 2.95 | 53.7 µg/mL (≈ 172 µM) |  |  |  |  | 
Cc1nc[nH]c1-c1n[nH]c(=S)n1-c1cc(F)ccc1F [13b, 4–(2,5-difluorophenyl)-5–(4-methylimidazol-5-yl)-1,2,4-triazole-3-thione] |  |  |  |  | 224 µg/mL (≈ 765 µM) | 11.14 | 253.9 °C | 
Cc1ccccc1NC(=S)NNC(=O)c1[nH]cnc1C [14a] | 288.4 µg/mL (≈ 997 µM) | 1.92 | ∼150.31 µg/mL |  |  |  |  | 

Structure (SMILES) | CC30 [1] | SI (T. gondii RH-GFP [2]) | IC50Tg (T. gondii RH-GFP [2]) | CC30 [3] | IC50 (T. gondii RH-GFP [4]; [5]) | SI (T. gondii RH-GFP [4]) | melting point | IC50 (T. gondii RH-GFP [4]; HS27, 96 h)
Cc1cccc(NC(=S)NNC(=O)c2[nH]cnc2C)c1 [15a] | 50.12 µg/mL (≈ 173 µM) | 1.35 | 37.15 µg/mL (≈ 128 µM) |  |  |  |  | 
Cc1ccc(NC(=S)NNC(=O)c2[nH]cnc2C)cc1 [16a] | 34.67 µg/mL (≈ 120 µM) | 0.60 | ∼57.58 µg/mL |  |  |  |  | 
Cc1ccc(-n2c(-c3[nH]cnc3C)n[nH]c2=S)cc1 [16b] |  |  |  | 1113.53 µg/mL (≈ 4100 µM) | 110 µg/mL (≈ 406 µM) | 10.11 |  | 
Cc1ccc(NC(=S)NNC(=O)c2[nH]cnc2C)cc1Cl [17a] | 28.18 µg/mL (≈ 87 µM) | 1.51 | 18.62 µg/mL (≈ 57.5 µM) |  |  |  |  | 
COc1ccccc1NC(=S)NNC(=O)c1[nH]cnc1C [18a] | 138.04 µg/mL (≈ 452 µM) | 4.17 | 33.11 µg/mL (≈ 108 µM) |  |  |  |  | 
COc1ccccc1-n1c(-c2[nH]cnc2C)n[nH]c1=S [18b, 4–(2-methoxyphenyl)-5–(4-methylimidazol-5-yl)-1,2,4-triazole-3-thione] |  |  |  |  | 93.2 µg/mL (≈ 324 µM) |  | 145.2 °C | 
COc1cccc(NC(=S)NNC(=O)c2[nH]cnc2C)c1 [19a] | 165.96 µg/mL (≈ 543 µM) | 2.08 | 79.65 µg/mL (≈ 261 µM) |  |  |  |  | 
COc1cccc(-n2c(-c3[nH]cnc3C)n[nH]c2=S)c1 [19b, 4–(3-methoxyphenyl)-5–(4-methylimidazol-5-yl)-1,2,4-triazole-3-thione] |  |  |  |  | 96.8 µg/mL (≈ 337 µM) |  | 228.8 °C | 
COc1ccc(NC(=S)NNC(=O)c2nc[nH]c2C)cc1 [20a] | 389.05 µg/mL (≈ 1270 µM) | 3.41 | 113.99 µg/mL (≈ 373 µM) |  |  |  |  | 
COc1ccc(NC(=S)NNC(=O)c2[nH]cnc2C)cc1OC [21a] | >500 µg/mL |  | ∼174.98 µg/mL |  |  |  |  | 
CCOc1ccc(NC(=S)NNC(=O)c2[nH]cnc2C)cc1 [22a] | 500 µg/mL (≈ 1570 µM) | 5.25 | 95.28 µg/mL (≈ 298 µM) |  |  |  |  | 
CC(=O)c1cccc(NC(=S)NNC(=O)c2[nH]cnc2C)c1 [23a] | 206.54 µg/mL (≈ 651 µM) | 2.16 | 95.50 µg/mL (≈ 301 µM) |  |  |  |  | 
Cc1nc[nH]c1C(=O)NNC(=S)Nc1c(C(C)C)cccc1C(C)C [24a] | 190.55 µg/mL (≈ 530 µM) | 1.95 | 97.72 µg/mL (≈ 272 µM) |  |  |  |  | 
Cc1nc[nH]c1C(=O)NNC(=S)Nc1ccc(N(C)C)cc1 [25a] | 112.2 µg/mL (≈ 352 µM) | 0.68 | ∼164.70 µg/mL |  |  |  |  | 
CCN(CC)c1ccc(NC(=S)NNC(=O)c2[nH]cnc2C)cc1 [26a] | 63.1 µg/mL (≈ 182 µM) | 2.46 | 25.70 µg/mL (≈ 74.2 µM) |  |  |  |  | 
CCc1nc(N)nc(N)c1-c1ccc(Cl)cc1 [PYR, pyrimethamine] |  |  |  | 11.37 µg/mL (≈ 45.7 µM) | 1.79 µg/mL (≈ 7.2 µM) | 6.34 |  | 
Nc1ccc(S(=O)(=O)Nc2ncccn2)cc1 [SDZ, sulfadiazine] |  |  |  | 2161.72 µg/mL (≈ 8640 µM) |  | 0.44 |  | 4860 µg/mL (≈ 19400 µM)
COc1cc(Cc2cnc(N)nc2N)cc(OC)c1OC [TRI, trimethoprim, reference compound] |  |  |  | 336.20 µg/mL (≈ 1160 µM) |  | 16.07 |  | 20.9 µg/mL (≈ 72.1 µM)
